Results as given in US11413281B2, “Ternary conjugate of antitumor drug, and synthesis and application” (priority 2016, dated 2022).
Where no end group is shown, it is not given here.

Experiments:
[1] = test system: human hepatoma cells (HepG2); assay: In vitro anti-tumor activity, MTT assay, HepG2; assay type: cell-based; details: HepG2, 48 h, read-out: HepG2 (IC50, μM)
Description: Formulation of DMEM low glucose medium: HyClone MEM low glucose medium, 500 mL per bottle, add 10% fetal bovine serum and 1% solution of penicillin, stored in a refrigerator at 4° C.
(§1) Preparation of MTT solution: MTT dry powder 0.5 g was dissolved in 100 mL PBS buffer, filtered and sterilized with a […] filter, and placed in a refrigerator at −12° C. for storage.
(§2) Three types of tumor cells used in the assay for antitumor activity are human hepatoma cells (HepG2), leukemia cells (K562) and human colon cancer cells (HCT116).
Human Hepatocarcinoma Cell (HepG2) Test
The culture medium for HepG2 cells was DMEM cell culture medium containing 1% penicillin-streptomycin solution and 10% fetal bovine serum, and the culture condition was 37° C. and a constant temperature incubator containing 5% CO2. Specific steps:
The cells were counted using a hemocytometer and diluted with DMEM low glucose to 5×10^4 cells/mL.
(§3) Add 100 μL of cell suspension to each well of a 96-well plate, mix, incubated at 37° C. for 24 h.
(§4) The desired test compounds were diluted to 5 concentrations: 2 mM, 0.2 mM, 20 μM, 2 μM, 0.2 μM, and 0.5 μL/well was sequentially added according to the concentration, incubated at 37° C. for 48 h.
(§5) MTT was added at a concentration of 5 mg/mL, incubated at 37° C. for 4 h.
Cells were lysed by addition of DMSO, and the OD values at 490 nm and 630 nm were measured with a microplate reader. […]

[2] = test system: human colon cancer cells (HCT116); assay: In vitro anti-tumor activity, MTT assay, HCT116; assay type: cell-based; details: HCT-116, 48 h, read-out: HCT116 (IC50, μM)
Description: Preparation of DMEM/F-12 culture broth: HyClone MEM/F-12 medium, 500 mL per bottle, add 10% fetal bovine serum and 1% solution of penicillin, stored in a refrigerator at 4° C.
as §1, §2
Human colon cancer cell HCT116 test
The culture fluid used for HCT116 cells was a DMEM/F-12 cell culture solution containing 1% penicillin-streptomycin solution, 10% fetal bovine serum. Specific steps:
The cells were counted using a hemocytometer and diluted with DMEM/F-12 medium to 5×10^4 cells/mL.
as §3, §4, §5
Cells were lysed by addition of DMSO, and the OD values at 490 nm and 630 nm were measured with a microplate reader.
(§6) Processing data, calculate IC50 value according to OD value.

leukemia cells (K562) = assay: In vitro anti-tumor activity, MTT assay, K562; assay type: cell-based; details: Homo sapiens, K562, 48 h, read-out: K562 (IC50, μM)
Description: as §1, §2
K562 cells were cultured in RPMI1640 cell culture medium containing 1% penicillin-streptomycin solution, 10% fetal bovine serum, and incubated at 37° C. in a constant temperature incubator containing 5% CO2. Specific steps:
The cells were counted using a hemocytometer and diluted to 5×10^4 cells/mL with RPMI medium;
100 μL of cell suspension was added to each well of a 96-well plate, incubated at 37° C. for 2 h.
as §4
MTT was added at a concentration of 5 mg/mL, incubated at 37° C. for 4 hours.
Isopropanol and hydrochloric acid lysis were added, and the OD values at 570 nm and 630 nm were measured with a microplate reader.
as §6

[3] = Self-assembly in aqueous solution (proton NMR in DMSO-d6 vs D2O); assay type: physicochemical; details: HCPT NMR signals disappear in D2O
Excerpt: The micelles enclose the hydrophobic structure inside. […] This phenomenon also exists in the conjugate of PEG and HCPT, and it is confirmed by dynamic light scattering and transmission electron microscopy, which showing it can form nanospheres or nanorods with about 200 nm diameter.

[4] = test system: E-selectin mediated adhesion of THP-I to HUVECs; assay: Adhesion test of human acute monocytic leukemia cells and endothelial cells; assay type: cell-based; details: THP-I on TNF-α stimulated HUVECs, FIG. 4
Description: Example 3. Adhesion Test of Compounds Against Human Acute Monocytic Leukemia Cells and Endothelial Cells
Endothelial cell line HUVEC and human acute monocytic leukemia cell line THP-I were purchased from ATCC and cultured at 37° C. in a 5% CO2 saturated humidity medium, which contains 10% fetal bovine serum, RPMI 1640 with 100 μg/mL penicillin and F-12 with 100 μg/mL streptomycin, the cells were used at logarithmic growth phase.
Polylysine (20 μg/ml) (Shanghai Yuanye Biotechnology Co., Ltd.) was coated on a black 96-well cell culture plate (Corning Incorporated costar 3603) and incubated at 37° C. for 12 h. Endothelial cells HUVECs were seeded at a concentration of […] in black 96-well cell culture plates. After incubation at 37° C. for 36 h, the medium in the cell culture plates was removed. The experimental group was added with F-12 medium with 20 ng/ml TNF-α, F-12 medium without TNF-α was added to the control group, all the groups were incubated for 6 h at 37° C. […] 100 μl permeation solution (BIOSHARP) was added to each well and fluorescence was measured with a Synergy 4 Multiplate Reader (Biotek) (Ex, 485 nm; Em, 528 nm). The inhibitory effect of the candidate compound is inversely proportional to the fluorescence intensity, and the lower the fluorescence value, the stronger the inhibition effect of the compound.

Row | Compound | IC50 [1] | IC50 [2] | IC50 (leukemia cells (K562)) | self-assembly in aqueous solution [3] | anti-E-selectin mediated cell adhesion in vitro [4]
1 | CC[C@@]1(O)C(=O)OCc2c1cc1n(c2=O)Cc2cc3cc(O)ccc3nc2-1 [HCPT, 10-hydroxycamptothecin] | < 1 µM | < 1 µM | < 1 µM |  | 
2 | Compound 9 (CIELLQAR-OH; also: Cys1 connects to remainder of compound 9 through SH and amino group) |  |  |  | self-assembled into nano-micelles | significant anti-E-selectin mediated cell adhesion
